Test [1] has as its target T1, human calcitonin receptor (hCTR) (Homo sapiens, UniProt P30988).
T1 construct: host or cells: BHK (Baby Hamster Kidney), Hollex-1 cell line
T1 sequence (P30988 25-474): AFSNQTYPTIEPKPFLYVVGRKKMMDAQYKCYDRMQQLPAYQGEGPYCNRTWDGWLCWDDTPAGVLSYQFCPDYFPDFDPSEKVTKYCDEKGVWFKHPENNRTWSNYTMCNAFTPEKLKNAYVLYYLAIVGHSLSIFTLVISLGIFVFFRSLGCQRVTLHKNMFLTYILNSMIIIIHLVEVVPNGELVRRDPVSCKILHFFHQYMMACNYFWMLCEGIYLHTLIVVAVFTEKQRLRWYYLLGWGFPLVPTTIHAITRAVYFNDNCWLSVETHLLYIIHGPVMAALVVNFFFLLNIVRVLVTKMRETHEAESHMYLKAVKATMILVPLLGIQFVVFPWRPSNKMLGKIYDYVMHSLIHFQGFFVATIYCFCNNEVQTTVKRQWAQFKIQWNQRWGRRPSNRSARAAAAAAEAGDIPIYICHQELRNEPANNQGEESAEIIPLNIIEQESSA
The test can be described thus: Human calcitonin receptor (hCTR) in vitro potency assay, CRE-luciferase reporter in BHK cells. The note with it: BHK hCTR/CRE-Luc cells, 3 hours incubation, assay buffer with 1% ovalbumin; read-out: hCalcR potency, EC50. In kind it is cell-based. From the text:
Activation of hCTR leads to increased cellular concentrations of CAMP. Consequently, transcription is activated by promotors containing multiple copies of the CAMP response element (CRE). It is thus possible to measure hCTR activity using a CRE-luciferase reporter gene introduced into Baby Hamster Kidney (BHK) cells co-expressing the hCTR.
A BHK cell line was stably transfected with the human calcitonin receptor (a) and a CRE-responsive luciferase (CRE-Luc) reporter gene according to methods known to the person skilled in the art (Hollex-1 cell line, obtained from Zymogenetics described in U.S. Pat. No. 5,622,839).
(§1) Cells stocks were prepared by culturing of the stably transfected BHK hCTR/CRE-Luc cell line in growth medium consisting of DMEM (Gibco, 31966-021) supplemented with 10% FBS (Gibco, 16140-071), 1% Pen/Strep (Gibco, 15140-122), 0.5 mg/mL Geneticin (Gibco, 10131-027) and 250 nM Methotrexate (Sigma, A6770). Cells at approximately 80-90% confluence were washed once with PBS (Gibco 14190-094) and loosened from the cell flasks with Versene (Gibco, 15040-033) or TrypLE™ (Gibco, 12605-010). After centrifugation, the cell pellet was dissolved and diluted to approximately 2.5×10E6 cells/mL in Recovery™ Cell Culture Freezing Medium (Gibco, 12648-010). Cells were aliquoted and stored at −180° C. until use.
(§2) The assay buffer consisted of DMEM without phenol red (Gibco, 11880-028) supplemented with 1× GlutaMAX (Gibco, 35050-038), 10 mM HEPES (Gibco, 15630-056) and 1% (w/v) ovalbumin (Sigma, A5503).
(§3) To perform the assay, BHK hCTR/CRE-Luc cells were thawed, washed once in PBS and seeded in 40 μL growth medium in a white 384-well culture plate (PerkinElmer, 6007688) at a cell density of 4.000 cells/well on the day before the experiment. The plate was incubated over night at 37° C. in 5% CO2. On the day of the assay, cells were washed once in assay buffer. Serial dilutions (7-fold dilutions, 7 concentrations Pr. compound and one well containing only assay buffer) of comparator compounds and amylin analogues were performed in assay buffer often starting from approximately 10 nM in 96-well plates and 30 μL of each concentration added to the 384-well assay plate with cells. The assay plate was incubated for 3 hours at 37° C. in 5% CO2 after which 30 μL SteadyLite Plus (PerkinElmer, 6066759) was added to each well. The assay plate was sealed, incubated at room temperature with gentle shaking for 5 minutes followed by 30 minutes incubation without shaking while protected from light. Luminescence was detected on a luminescence plate reader e.g. a Synergy 2 (BioTek).

Test [2] concerns the target T2, human amylin receptor (hAMYR3) (Homo sapiens, UniProt O60896+P30988).
T2 construct: host or cells: BHK (Baby Hamster Kidney), Hollex-1 cell line further transfected with RAMP3
The test can be described thus: Human amylin receptor (hAMYR3) in vitro potency assay, CRE-luciferase reporter in BHK cells. It is filed as cell-based. The following applies: BHK hAMYR3/CRE-Luc cells, 3 hours incubation, assay buffer with 1% ovalbumin.
Source text: Activation of hAMYR3 leads to increased cellular concentrations of cAMP. Consequently, transcription is activated by promotors containing multiple copies of the CAMP response element (CRE). It is thus possible to measure hAMYR3 activity using a CRE-luciferase reporter gene introduced into Baby Hamster Kidney (BHK) cells co-expressing the hAMYR3.
A BHK cell line was stably transfected with the human calcitonin receptor (a) and a CRE-responsive luciferase (CRE-Luc) reporter gene according to methods known to the person skilled in the art (Hollex-1 cell line, obtained from Zymogenetics described in U.S. Pat. No. 5,622,839). The cell line was further transfected with human receptor modifying protein 3 (RAMP3) using standard methods. This turns the human calcitonin receptor into a human amylin-3(a) receptor.
as §1, with “hAMYR3/CRE-Luc” for “hCTR/CRE-Luc”, “10131-027), 0.4 mg/mL Hygromycin (Invitrogen, 10687010)” for “10131-027)”
as §2
as §3, with “hAMYR3/CRE-Luc” for “hCTR/CRE-Luc”
(Reporter assays use an easily measured gene product as a stand-in for the process of interest.)

These results are taken from US12116388B2, “Amylin receptor agonists” (Novo Nordisk A/S, priority 2022, dated 2024).

Molecules are shown by their SMILES. Starred links: 1 amine or outer side, 2 acyl side, 3 side chain; linkers in the order of their positions; H or OH if unused. Residues, ends and D or L forms follow the SMILES beside them. Groups on a side chain read outwards from the residue. *: point of attachment. C18 diacid = O=C(O)CCCCCCCCCCCCCCCCC(=O)*; γGlu = O=C(O)[C@H](CCC(=O)[*:2])N[*:1]

T2 sequence (O60896 24-148, one chain of several): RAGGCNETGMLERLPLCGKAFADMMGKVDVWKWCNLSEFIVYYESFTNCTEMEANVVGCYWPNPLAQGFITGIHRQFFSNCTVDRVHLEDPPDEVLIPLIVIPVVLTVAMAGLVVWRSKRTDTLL

What is called EC50 is the concentration giving half of the maximal effect. For `CC[C@H](C)[C@H](NC(=O)[C@H](C)NC(=O)CNC(=O)[C@H](Cc1ccccc1)NC(=O)[C@@H]1CCCN1C(=O)[C@H](CC(=O)O)NC(=O)[C@H](CO)NC(=O)[C@H](CO)NC(=O)[C@H](Cc1c[nH]cn1)NC(=O)[C@H](Cc1c[nH]cn1)NC(=O)[C@H](CC(C)C)NC(=O)[C@H](Cc1ccccc1)NC(=O)[C@H](CCC(=O)O)NC(=O)[C@H](C)NC(=O)[C@H](CC(C)C)NC(=O)[C@H](CCCNC(=N)N)NC(=O)[C@H](CCC(N)=O)NC(=O)[C@@H](NC(=O)[C@H](CCC(N)=O)NC(=O)[C@H](C)NC(=O)[C@@H](NC(=O)[C@H](C)NC(=O)[C@H](CC(C)C)NC(=O)[C@H](CC(N)=O)NC(=O)[C@H](CO)NC(=O)[C@H](C)NC(=O)CC[C@H](NC(=O)CCCCCCCCCCCCCCCCC(=O)O)C(=O)O)[C@@H](C)O)[C@@H](C)O)C(=O)N1CCC[C@H]1C(=O)N[C@@H](CO)C(=O)N[C@@H](CO)C(=O)N[C@H](C(=O)N[C@@H](CC(=O)O)C(=O)N[C@H](C(=O)NCC(=O)N1CCC[C@H]1C(=O)N[C@@H](CC(=O)O)C(=O)N[C@H](C(=O)N1CCC[C@H]1C(N)=O)[C@@H](C)O)C(C)C)[C@@H](C)O` [Compound 12, N^1-[(4S)-4-carboxy-4-(17-carboxyheptadecanoylamino)butanoyl]-[Ala1,Ser2,Leu4,Ala7,Gln8,Glu14,His17,Asp21,Pro22,Pro27,Asp31,Pro34,Asp35,Pro37]-human amylin] ({C18 diacid-γGlu}-ASNLATAQTQRLAEFLHHSSDPFGAIPSSTDVGPDTP-NH2), the half-maximal effective concentration (EC50) in test [1] was 1.99 pM; in test [2], 1.88 pM.

With `CC[C@H](C)[C@H](NC(=O)[C@@H]1CCCN1C(=O)CNC(=O)[C@H](Cc1ccccc1)NC(=O)[C@H](CC(N)=O)NC(=O)[C@H](CC(=O)O)NC(=O)[C@H](CO)NC(=O)[C@H](CO)NC(=O)[C@H](Cc1c[nH]cn1)NC(=O)[C@H](Cc1c[nH]cn1)NC(=O)[C@H](CC(C)C)NC(=O)[C@H](Cc1ccccc1)NC(=O)[C@H](CCC(=O)O)NC(=O)[C@H](C)NC(=O)[C@H](CC(C)C)NC(=O)[C@H](CCCNC(=N)N)NC(=O)[C@H](C)NC(=O)[C@@H](NC(=O)[C@H](CCC(N)=O)NC(=O)[C@H](C)NC(=O)[C@@H](NC(=O)[C@H](CO)NC(=O)[C@H](CC(C)C)NC(=O)[C@H](CO)NC(=O)CNC(=O)[C@H](C)NC(=O)CC[C@H](NC(=O)CCCCCCCCCCCCCCCCC(=O)O)C(=O)O)[C@@H](C)O)[C@@H](C)O)C(=O)N[C@@H](CC(C)C)C(=O)N1CCC[C@H]1C(=O)N1CCC[C@H]1C(=O)N[C@H](C(=O)N[C@@H](CC(=O)O)C(=O)N[C@H](C(=O)NCC(=O)N[C@@H](CO)C(=O)N[C@@H](CC(N)=O)C(=O)N[C@H](C(=O)N1CCC[C@H]1C(N)=O)[C@@H](C)O)C(C)C)[C@@H](C)O` [Compound 13, N^1-[(4S)-4-carboxy-4-(17-carboxyheptadecanoylamino)butanoyl]-[Ala1,Gly2,Ser3,Leu4,Ser5,Ala7,Gln8,Ala10,Glu14,His17,Asp21,Pro25,Pro28,Pro29,Asp31,Pro37]-human amylin] ({C18 diacid-γGlu}-AGSLSTAQTARLAEFLHHSSDNFGPILPPTDVGSNTP-NH2), the concentration for a half-maximal effect (EC50) was 1.58 pM in test [1] and 1.36 pM in test [2].

On to `CC[C@H](C)[C@H](NC(=O)[C@H](CCCCNC(=O)CC[C@H](NC(=O)CCCCCCCCCCCCCCCCC(=O)O)C(=O)O)NC(=O)CNC(=O)[C@H](Cc1ccccc1)NC(=O)[C@H](CC(N)=O)NC(=O)[C@H](CC(=O)O)NC(=O)[C@H](CO)NC(=O)[C@H](CO)NC(=O)[C@H](Cc1c[nH]cn1)NC(=O)[C@H](Cc1c[nH]cn1)NC(=O)[C@H](CC(C)C)NC(=O)[C@H](Cc1ccccc1)NC(=O)[C@H](CCC(=O)O)NC(=O)[C@H](C)NC(=O)[C@H](CC(C)C)NC(=O)[C@H](CCCNC(=N)N)NC(=O)[C@H](CCC(N)=O)NC(=O)[C@@H](NC(=O)[C@H](CCC(N)=O)NC(=O)[C@H](C)NC(=O)[C@@H](NC(=O)[C@H](CO)NC(=O)[C@H](CC(C)C)NC(=O)[C@H](CCC(N)=O)NC(=O)[C@H](CO)NC(=O)[C@H](C)NC(C)=O)[C@@H](C)O)[C@@H](C)O)C(=O)N[C@@H](CC(C)C)C(=O)N1CCC[C@H]1C(=O)N1CCC[C@H]1C(=O)N[C@H](C(=O)N[C@@H](CC(=O)O)C(=O)N[C@H](C(=O)NCC(=O)N[C@@H](CO)C(=O)N[C@@H](CC(N)=O)C(=O)N[C@H](C(=O)N1CCC[C@H]1C(N)=O)[C@@H](C)O)C(C)C)[C@@H](C)O` [Compound 18, N^1-acetyl,N{Epsilon-25}-[(4S)-4-carboxy-4-(17-carboxyheptadecanoylamino)butanoyl]-[Ala1,Ser2,Gln3,Leu4,Ser5,Ala7,Gln8,Glu14,His17,Asp21,Lys25,Pro28,Pro29,Asp31,Pro37]-human amylin] (Ac-ASQLSTAQTQRLAEFLHHSSDNFGK([γGlu-C18 diacid])ILPPTDVGSNTP-NH2), for which the EC50 in test [1] is 1.19 pM; in test [2], 1.38 pM.
